US7150876B2, “Methods for stabilizing ingredients within cosmetics, personal care and household products” (Merck Patent GmbH, priority 2004, dated 2006)

Legend:
[1] = Singlet oxygen quenching (RNO bleaching at 440 nm, methylene blue sensitizer, UV A); type: biochemical; conditions: for IC50% (μg/ml), singlet oxygen quenching ability: RNO bleaching at 440 nm, 20 min UV A; for Singlet oxygen scavenging behaviour: FIG. 3
Protocol: A solution of N,N-dimethyl-p-nitrosoaniline (RNO) and histidine and a known sensitizer (e.g. methylene blue) is exposed to UV A. Singlet oxygens generated under UV A induce a bleaching of RNO which can be measured spectrophotometrically at 440 nm. The efficiency of test products in terms of singlet oxygen scavenging is measured at 440 nm for various concentrations.
All measurements were performed at room temperature (24 C) with a Beckman Coulter DU-640 spectrophotometer at a scan speed of 120 nm/min with a spectral range from 300 to 700 nm.
150, Sigma-Aldrich • RNO (19 mg) dissolved in 50 ml of Buffer solution subsequent dilution by factor 25 in de-ionized water. • L-Histidine Solution (40 mM) • Mol. Wt. […] 320, Sigma-Aldrich • 5 mg are dissolved in distilled water (100 ml) subsequent dilution at 6.4 ml in 25 ml of de-ionized water. b) Antioxidant Solutions: • Ascorbic acid (0.5 mM) • Mol. Wt.
The stock solutions were added in an orderly manner with quantities according to the table below as to obtain a final total volume of 4.5 ml for each preparation. First, the RNO buffered solution was taken, followed by addition of L-Histidine and the sensitizer Methylene Blue. Then, the antioxidant solution was added and topped off to 4.5 ml total volume with buffer solution. This preparation was exposed to UV A radiation (˜35 W/m^2) for 20 min to generate singlet oxygens. The light absorption spectra were then recorded and the optical density measured at 440 nm (corresponding to RNO). The inverse of the light absorbances at 440 nm is then plotted as a function of the concentration in antioxidant.

[2] = Photostability of β carotene in lotion at room temperature, visible light, one month; conditions: room temperature storage
[3] = Photostabilization of Guaiazulene in ethanolic solution under sun simulator; type: physicochemical; conditions: for Relative absorption of Guaiazulene at 600 nm (%): ethanolic solution, sun simulator
Protocol: (§1) In Solution: Solutions in ethanol are prepared at respective concentrations of photosensitive materials and photostabilizer (typically 1:1 to 1:5 in weight %). […] The amount of photosensitive materials remaining in solution is calculated from the ratio of their maximal absorption band (λmax), before and after irradiation.
(§2) Amount of energy: 10 mJoules/Cm^2=1 MED
Photostabilization Results of Guaiazulene in Ethanolic Solution

[4] = Photostabilization and color change of Vanillin in ethanolic solution under sun simulator; type: physicochemical; conditions: for Color change of Vanillin in solution (new light absorption band around 390 nm, yellow color): with and without stabilizer, FIG. 1; for Relative absorption of Vanillin at 281 nm (%): ethanolic solution
Protocol: as §1, §2
Photostabilization Results of Vanillin in Ethanolic Solution
Color Change of Vanillin in Solution Under Sun Simulator With and Without Diethylhexyl Syringylidene Malorate in Solution
Photostabilization Results of Vanillin in Ethanolic Solution with isoamyl-alpha-acetyl-3,5-dimethoxy-4-hydroxy cinnamate

[5] = Color change of Menthyl anthranilate in solution under sun simulator; type: physicochemical; conditions: menthyl anthranilate:stabilizer 1:5, FIG. 2
Protocol: (§3) In Solution: Solutions in ethanol are prepared at respective concentrations of photosensitive materials and photostabilizer (typically 1:1 to 1:5 in weight %). Solutions are exposed to a sun simulator (754 W/m^2, 2 MED/h,) for various durations and light absorption spectra recorded for each sample at given times. The amount of photosensitive materials remaining in solution is calculated from the ratio of their maximal absorption band (λmax), before and after irradiation.
Color Change of Menthyl Anthranilate Under Sun Simulator With and Without Diethylhexyl Syringylidene Malonate in Solution

[6] = Photostability of Guaiazulene in a shampoo formulation under sun simulator; type: physicochemical; conditions: stabilizer 0.1% in the shampoo
Protocol: In Formulation: Samples are prepared as ultrathin films between two quartz plates as to obtain a minimum of 90% light transmission over the entire spectrum range of non absorbing chromophores. For example, ingredients which absorb only in the UV will be tested in formulation to obtain a minimum of 90% light transmission over the visible range. Samples are then irradiated under sun simulator (754 W/m^2, typically 2 MED/h) for given times and light absorption spectra recorded at each time. The remaining percentage of photosensitive compounds is calculated from the light absorption maximum (λmax) of the corresponding peak in the absorption spectrum.
as §2
Formulation Used for the Study Described in Example-5
Procedure: Combine A and heat to 70–75° C., except for U-care JR-400. Disperse U-care JR-400 in A under agitation. Add ingredients of phase B one by one at 70° C. Add phase C at 40° C. Premix Phase D and add to batch at 40° C. At 35° C. add phase E. Adjust pH (˜6.5) and viscosity with phase F.

[7] = Photostabilization of natural Tocopherols in ethanolic solution under sun simulator; type: physicochemical; conditions: stabilizer 0.05%
Protocol: as §3, §2
Photostabilization Results of Natural Tocopherols in Ethanolic Solution

[8] = Photostability of β carotene in lotion under sun simulator; conditions: stabilizer 0.2%, β carotene 0.02%

Cc1c(C)c2c(c(C)c1O)CCC(C)(C(=O)O)O2 (stereo not drawn) [Trolox C, S-hydroxy-tetramethylchroman carboxylic acid, reference compound]
IC50% (μg/ml), singlet oxygen quenching ability [1]: 88 µg/mL

CC1=C(/C=C/C(C)=C/C=C/C(C)=C/C=C/C=C(C)/C=C/C=C(C)/C=C/C2=C(C)CCCC2(C)C)C(C)(C)CCC1 [β-carotene]
Stability of β-carotene in ambient light [2]: degrades in ambient light at room temperature storage

Cc1ccc(C(C)C)cc2c(C)ccc1-2 [Guaiazulene]
Relative absorption of Guaiazulene at 600 nm (%) ([3]; 0 MED): 100%
Relative absorption of Guaiazulene at 600 nm (%) ([3]; 2 MED): 83%
Relative absorption of Guaiazulene at 600 nm (%) ([3]; 5 MED): 43%
Relative absorption of Guaiazulene at 600 nm (%) ([3]; 10 MED): 6%
Guaiazulene lost when exposed to solar simulator ([3]; total energy of 100 mJ/cm^2): ~90%

CCCCC(CC)COC(=O)C(=Cc1cc(OC)c(O)c(OC)c1)C(=O)OCC(CC)CCCC (stereo not drawn) [Diethylhexyl syringylidene malonate, Di-2-ethylhexyl 3,5 dimethoxy 4 hydroxy benzylidene malonate]
Color change of Vanillin in solution (new light absorption band around 390 nm, yellow color) [4]: does not appear
Color change of Menthyl anthranilate (new light absorption band around 390 nm, yellow color) [5]: prevents any alteration/degradation of the fragrance
Effect of stabilizer on photostability of Guaiazulene in shampoo [6]: clear improvement in the photostability of Guaiazulene
Effect of stabilizer on photostability of Tocopherols in solution [7]: clear improvement in the photostability of Tocopherols
Singlet oxygen scavenging behaviour [1]: efficient singlet oxygen scavengers, better than Vitamin E
IC50% (μg/ml), singlet oxygen quenching ability [1]: 80 µg/mL
Effect of stabilizer on photostability of β carotene in lotion [8]: clear improvement in the photostability of β carotene

CCOS(=O)(=O)[O-].CCOS(=O)(=O)[O-].CC[N+](C)(C)CCCNC(=O)C(=Cc1cc(OC)c(O)c(OC)c1)C(=O)NCCC[N+](C)(C)CC [Eusolex HP ™, Bis-N-[3′-(N′,N′-Dimethylethylammonium)propyl]-3,5-dimethoxy-4-hydroxy benzylidene malonamide bis ethyl sulfate]
Singlet oxygen scavenging behaviour [1]: efficient singlet oxygen scavengers, better than Vitamin E
IC50% (μg/ml), singlet oxygen quenching ability [1]: 104 µg/mL

CC1CCC(C(C)C)C(OC(=O)c2ccccc2N)C1 (stereo not drawn) [Menthyl anthranilate]
Color change of Menthyl anthranilate (new light absorption band around 390 nm, yellow color) [5]: a new light absorption band for menthyl antranillate appears around 390 nm

COc1cc(C=C(C(C)=O)C(=O)OCCC(C)C)cc(OC)c1O [Eusolex ASA ™, Isoamyl alpha acetyl-3,5 dimethoxy 4 hydroxy benzylidene malonate]
Efficiency as an antioxidant (ranking) [1]: best efficiency as an antioxidant
Singlet oxygen scavenging behaviour [1]: efficient singlet oxygen scavengers, better than Vitamin E
IC50% (μg/ml), singlet oxygen quenching ability [1]: 61 µg/mL

O=C1O[C@H]([C@@H](O)CO)C(O)=C1O [Ascorbic acid, reference compound]
Singlet oxygen scavenging behaviour [1]: pro-oxidant
IC50% (μg/ml), singlet oxygen quenching ability [1]: Pro-oxidant

COc1cc(C=O)ccc1O [Vanillin]
Relative absorption of Vanillin at 281 nm (%) ([4]; 0 MED): 100%
Relative absorption of Vanillin at 281 nm (%) ([4]; 2 MED): 45%
Relative absorption of Vanillin at 281 nm (%) ([4]; 5 MED): 40%
Relative absorption of Vanillin at 281 nm (%) ([4]; 10 MED): 36%
Color change of Vanillin in solution (new light absorption band around 390 nm, yellow color) [4]: a new light absorption band appears around 390 nm
